Data on one compound can be found in patent US20250049922A1, “PHARMACEUTICAL COMPOSITION COMPRISING P-BORONOPHENYLALANINE” (priority 2021, published 2025).

The series in a line: Solubilization of BPA in aqueous solutions, visual inspection of dissolution. The format is physicochemical. The settings on record: RT, after 2 hours. As for the experimental part:
BPA (L-p-boronophenylalanine, Katchem, Praha, Czech Republic) was weighed to a set of test tubes, 15 mg each (72 μmol). At room temperature (RT), 0.5 ml each of various aqueous solutions as listed below, were added into parallel test tubes and mixed vigorously. After 2 hours, the results of visual inspection of BPA dissolution and pH were as follows: […]

SMILES strings stand for the structures.

As to `N[C@@H](Cc1ccc(B(O)O)cc1)C(=O)O` [BPA, L-p-boronophenylalanine], the “visual inspection of BPA dissolution” value (15 mg BPA in 0.5 ml 0.12 M L-histidine (neutral pH)) was “no dissolution”; the “visual inspection of BPA dissolution” value (15 mg BPA in 0.5 ml 0.5 M L-arginine (pH over 11)) is recorded as “partial dissolution”; the “visual inspection of BPA dissolution” value (15 mg BPA in 0.5 ml 0.5 M L-serine (neutral pH)) is listed as “no dissolution”; the “visual inspection of BPA dissolution” value (15 mg BPA in 0.5 ml 0.5 M NaOH) is on record as “complete dissolution”; the “visual inspection of BPA dissolution” value (15 mg BPA in 0.5 ml 0.5 M Tris (Trizma base, pH over 10)) is recorded as “complete dissolution”; the “visual inspection of BPA dissolution” value (15 mg BPA in 0.5 ml 0.5 M Tris-HCl (pH 8)) is reported as “partial dissolution”. The “visual inspection of BPA dissolution” value reads like this: (15 mg BPA in 0.5 ml 0.5 M propylene glycol) “no dissolution”; (15 mg BPA in 0.5 ml 0.5 M sodium-potassium tartrate (neutral pH)) “partial dissolution”; (15 mg BPA in 0.5 ml 96% ethanol (v/v)) “no dissolution”; (15 mg BPA in 0.5 ml deionized water) “no dissolution”; (15 mg BPA, 0.25 ml 0.5 M NaOH followed by 0.5 ml 0.5 M L-serine) “complete dissolution”.
